Source: patent US11591316B2, “Compounds, compositions, and methods” (DENALI THERAPEUTICS INC., priority 2016, dated 2023)

Assay: Metabolic stability in human liver microsomes
Assay type: in vitro ADME
Conditions: 1 μM compound, 0.5 mg/mL protein, projected hepatic clearance (well-stirred model), Table 5
Experimental: Metabolic stability of compounds was evaluated in human liver microsomes (from Corning or XenoTech, LLC) using a 96-well plate assay format. Compounds were incubated at 37° C. at 1 μM final concentration in the microsomal matrix (0.5 mg/mL total protein) in the presence or absence of NADPH cofactor. An NADPH regenerating system, comprised of NADP, MgCl2, isocitric acid, and isocitrate dehydrogenase, was used in the assay. Enzymatic reactions were conducted for 0, 5, 10, 20, 30, or 60 min before termination by addition of acetonitrile containing tolbutamide and labetalol internal standards (100 ng/mL). After shaking for 10 min, plates were subjected to centrifugation (4000 rpm at 4° C.) for 20 min and supernatants were mixed 1:3 with HPLC grade water. Samples were analyzed by LC-MS/MS using appropriate MRM transitions for each analyte and internal standard (IS). Analyte/IS peak area ratios were used to determine percent compound remaining at each time point. Intrinsic clearance (Clint; expressed as mL·min^−1·mg^−1) was calculated from the first order elimination constant (k, min^−1) of test article decay and the volume of the incubation. These values were scaled to intrinsic organ clearance (Clint) using human specific scaling factors (48.8 mg microsomal protein per g liver; 25.7 g liver per kg body weight). […]

| Structure (SMILES) | Human liver microsomes CLhep [mL/min/kg] |
| --- | --- |
| [2H]C([2H])([2H])n1nc(C(C)(C)n2nccn2)cc1Nc1ncc(C(F)(F)F)c(NCC)n1 [Compound 34, N4-Ethyl-N2-[1-(^2H3)methyl-3-[2-(2H-1,2,3-triazol-2-yl)propan-2-yl]-1H-pyrazol-5-yl]-5-(trifluoromethyl)pyrimidine-2,4-diamine] | 0.75 |
| CNc1nc(Nc2cn(C(C)(C)c3ncn(C)n3)nc2C)ncc1C(F)(F)F [Compound 218] | 0 |
